Reference: US6063814A, “Phorbol esters as anti-neoplastic and white blood cell elevating agents” (priority 1997, dated 2000)

Tests used:
[1] = system: Peripheral White Blood Cells (WBC) and Hemoglobin (Hb); assay: Peripheral white blood cell and hemoglobin counts in S180 cell-injected mice; format: in vivo; conditions: for WBC count: control 13.6±1.8; for Hb: control 134±15
Procedure: Effect of TPA on the Peripheral White Blood Cells (WBC) and Hemoglobin (Hb) Counts in S180 Cell-Injected Mice:
S180 cells were injected into mice. On the third day, the mice were given TPA i.p. at 50, 100 or 200 μg/kg/d for 7 days. On the second day after the treatment was completed, blood samples were taken from the tails of the treated mice for WBC and Hb analyses.

[2] = system: human leukemia cell line HL-60; conditions: cited from earlier work
mouse skin = conditions: cited from earlier work
cell cultures = conditions: Chemsyn product brochure; cited from earlier work

CCCCCCCCCCCCCC(=O)O[C@@H]1[C@@H](C)[C@@]2(O)[C@@H](C=C(CO)C[C@]3(O)C(=O)C(C)=C[C@@H]23)[C@@H]2C(C)(C)[C@]12OC(C)=O [TPA, Phorbol 12-Myristate-13-Acetate]
WBC count ([1]; i.p. 50 μg/kg/d for 7 d): 16.1±7.4 ×10^9 /L | Hb ([1]; i.p. 50 μg/kg/d for 7 d): 136 ± 11 g/L | WBC count ([1]; i.p. 100 μg/kg/d for 7 d): 18.7±3.0 ×10^9 /L | Hb ([1]; i.p. 100 μg/kg/d for 7 d): 149 ± 12 g/L | WBC count ([1]; i.p. 200 μg/kg/d for 7 d): 20.7±3.4 ×10^9 /L | Hb ([1]; i.p. 200 μg/kg/d for 7 d): 149 ± 10 g/L | effect on Hb levels ([1]; i.p. 50-200 μg/kg/d for 7 d): not greatly affected | effect on peripheral WBC counts ([1]; i.p. 50-200 μg/kg/d for 7 d): could increase the peripheral WBC counts in mice in a dose-dependent manner | differentiation to nondividing macrophage-like cells ([2]; Weinberg, Science 213:655-657, 1981): causes differentiation of cells of the human leukemia cell line HL-60 to nondividing macrophage-like cells | induction of differentiation ([2]; stable human promyelocytic leukemic cell line HL-60): induces differentiation | mouse skin cancer promotion (mouse skin; Chemsyn product brochure): extremely potent mouse skin cancer promoter | tumor promotion (mouse skin; Merck Index, 11th Edition): co-carcinogen or tumor promoter | mitogenic activity (cell cultures): powerful mitogen in cell cultures
